Assay results reported in the supplement of paper PMC11616607.

These compounds were tested on OVCAR5 (assay: drug sensitivity score (DSS) from 5-point dose-response viability curve (DSS (area-under-curve based score)); higher = more sensitive (stronger growth inhibition or killing); extreme values may be limits of the assay). Conditions: exposure time: 72 h; concentration range: 5 concentrations over 10,000-fold range.
Procedure, shortened: (§1)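 For the drug sensitivity score, obtained per cell line and drug in Breeze software, larger values mean greater sensitivity. No response corresponds to a score of zero. Ovarian cancer and normal ovarian cells were seeded at 1,500 per well into 384-well plates already holding acoustically dispensed drugs (Echo 550, DMSO or water, five concentrations over a 10,000-fold range) and incubated 3 days at 37°C, 5% CO2. CellTiter-Glo luminescence on a PHERAstar FS gave the viability readout.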

In order of falling drug sensitivity score:
1. CCNCCS(=O)(=O)NC[C@@]1(c2ccccc2)SC(NC(=O)C(C)(C)C)=NN1C(=O)C(C)(C)C [Litronesib]  19
2. CCNC(=O)c1noc(-c2cc(C(C)C)c(O)cc2O)c1-c1ccc(CN2CCOCC2)cc1 [Luminespib]  15.2
3. CC(C)C[C@H](NC(=O)CNC(=O)c1cc(Cl)ccc1Cl)B(O)O [Ixazomib]  10.4
4. NC(=O)N1CCC(CC(=O)N2CCC([C@H]3c4ncc(Br)cc4CCc4cc(Cl)cc(Br)c43)CC2)CC1 [Lonafarnib]  9.1
5. O=C(c1cccc(Cl)c1F)N1CCN(Cc2cccc(Nc3nccs3)n2)CC1 [MK-8745]  7.8
6. Nc1cc(COc2c(Cl)cc(C[C@H](N)C(=O)O)cc2Cl)c2oc(-c3ccccc3)nc2c1 [JPH203]  7.5
7. CCC(C)n1ncn(-c2ccc(N3CCN(c4ccc(OCC5COC(Cn6cncn6)(c6ccc(Cl)cc6Cl)O5)cc4)CC3)cc2)c1=O (stereo not drawn) [Itraconazole]  5.9
8. O=C(Nc1cccc(NC(=O)c2cccc(O)c2O)c1)c1cccc(O)c1O [MST-312]  5
9. C/C(=C\c1csc(C)n1)[C@@H]1C[C@@H]2O[C@]2(C)CCC[C@H](C)[C@H](O)[C@@H](C)C(=O)C(C)(C)[C@@H](O)CC(=O)N1 [Ixabepilone]  4.5
10. Cc1ccc(NC(=O)c2ccc(CN3CCN(C)CC3)cc2)cc1Nc1nc(-c2cccnc2)cs1 [Masitinib]  4.4
11. C[C@]1(O)C[C@@H](c2nc(-c3ccc4ccc(-c5ccccc5)nc4c3)c3c(N)nccn32)C1 [Linsitinib]  2.7
12. CC(C)NC(=O)COc1cccc(-c2nc(Nc3ccc4[nH]ncc4c3)c3ccccc3n2)c1 [KD025]  2
13. NC1(c2ccc(-c3nc4ccn5c(=O)[nH]nc5c4cc3-c3ccccc3)cc2)CCC1 [MK-2206]  2
14. O=C(CCNC(=O)c1ccc(OC(F)(F)F)cc1)N[C@@H]1CCCc2ccccc21 [ML390]  2
15. CNC(=O)c1cccc2cc(Oc3ccnc4cc(OCC5(N)CC5)c(OC)cc34)ccc12 [Lucitanib]  1.6
16. CNC(=O)[C@@H](NC(=O)[C@H](CC(C)C)[C@H](O)C(=O)NO)C(C)(C)C [Marimastat]  1.6
17. Cc1c(F)cc(C(=O)NC2CC2)cc1-c1ccc(C(=O)NCC(C)(C)C)cn1 [Losmapimod]  0.9
18. O=C(O)CC[C@H]1CC[C@@](c2cc(F)ccc2F)(S(=O)(=O)c2ccc(Cl)cc2)CC1 [MK-0752]  0.9
19. CC[C@H](C)C(=O)O[C@H]1C[C@@H](C)C=C2C=C[C@H](C)[C@H](CC[C@@H]3C[C@@H](O)CC(=O)O3)[C@H]21 [Lovastatin]  0.8
20. CS(=O)(=O)CCNCc1ccc(-c2ccc3ncnc(Nc4ccc(OCc5cccc(F)c5)c(Cl)c4)c3c2)o1 [Lapatinib]  0.7
21. N#Cc1ccnc(N2C(=O)CC[C@H]2C(=O)N(c2cncc(F)c2)[C@H](C(=O)NC2CC(F)(F)C2)c2ccccc2Cl)c1 [Ivosidenib]  0.6
22. Cn1cc(-c2cnn3c(N)c(Br)c([C@@H]4CCCNC4)nc23)cn1 [MK-8776]  0.4
23. O=C(Nc1cnn2ccc(N3CCC[C@@H]3c3cc(F)ccc3F)nc12)N1CC[C@H](O)C1 [Larotrectinib]  0
24. Oc1ccc2c(c1)CC[C@H](c1ccccc1)[C@@H]2c1ccc(OCCN2CCCC2)cc1 [Lasofoxifene]  0
25. Nc1cccc2c1CN(C1CCC(=O)NC1=O)C2=O (stereo not drawn) [Lenalidomide]  0
26. COc1cc2nccc(Oc3ccc(NC(=O)NC4CC4)c(Cl)c3)c2cc1C(N)=O [Lenvatinib]  0
27. N#Cc1ccc(C(c2ccc(C#N)cc2)n2cncn2)cc1 [Letrozole]  0
28. Cc1ccc(F)c(NC(=O)Nc2ccc(-c3cccc4[nH]nc(N)c34)cc2)c1 [Linifanib]  0
29. Nc1nc(OCc2cc(Br)cs2)c2[nH]cnc2n1 [Lomeguatrib]  0
30. Cc1cnc(-c2ccccc2C(C)C)nc1NCc1ccc(-n2ccnn2)cc1 [ML323]  0
31. CC(=O)O[C@]1(C(C)=O)CC[C@H]2[C@@H]3C=C(C)C4=CC(=O)CC[C@]4(C)[C@H]3CC[C@@]21C [Megestrol acetate]  0

What follows are compounds tested on OVCAR8 in the same assay as above. Conditions: exposure time: 72 h; concentration range: 5 concentrations over 10,000-fold range.
Procedure, shortened: as §1

In order of rising drug sensitivity score:
1. N#Cc1ccnc(N2C(=O)CC[C@H]2C(=O)N(c2cncc(F)c2)[C@H](C(=O)NC2CC(F)(F)C2)c2ccccc2Cl)c1 [Ivosidenib]  0
2. Nc1cc(COc2c(Cl)cc(C[C@H](N)C(=O)O)cc2Cl)c2oc(-c3ccccc3)nc2c1 [JPH203]  0
3. CS(=O)(=O)CCNCc1ccc(-c2ccc3ncnc(Nc4ccc(OCc5cccc(F)c5)c(Cl)c4)c3c2)o1 [Lapatinib]  0
4. O=C(Nc1cnn2ccc(N3CCC[C@@H]3c3cc(F)ccc3F)nc12)N1CC[C@H](O)C1 [Larotrectinib]  0
5. Oc1ccc2c(c1)CC[C@H](c1ccccc1)[C@@H]2c1ccc(OCCN2CCCC2)cc1 [Lasofoxifene]  0
6. Nc1cccc2c1CN(C1CCC(=O)NC1=O)C2=O (stereo not drawn) [Lenalidomide]  0
7. COc1cc2nccc(Oc3ccc(NC(=O)NC4CC4)c(Cl)c3)c2cc1C(N)=O [Lenvatinib]  0
8. N#Cc1ccc(C(c2ccc(C#N)cc2)n2cncn2)cc1 [Letrozole]  0
9. Cc1ccc(F)c(NC(=O)Nc2ccc(-c3cccc4[nH]nc(N)c34)cc2)c1 [Linifanib]  0
10. Nc1nc(OCc2cc(Br)cs2)c2[nH]cnc2n1 [Lomeguatrib]  0
11. O=C(O)CC[C@H]1CC[C@@](c2cc(F)ccc2F)(S(=O)(=O)c2ccc(Cl)cc2)CC1 [MK-0752]  0
12. NC1(c2ccc(-c3nc4ccn5c(=O)[nH]nc5c4cc3-c3ccccc3)cc2)CCC1 [MK-2206]  0
13. Cc1cnc(-c2ccccc2C(C)C)nc1NCc1ccc(-n2ccnn2)cc1 [ML323]  0
14. CNC(=O)[C@@H](NC(=O)[C@H](CC(C)C)[C@H](O)C(=O)NO)C(C)(C)C [Marimastat]  0.1
15. Cc1c(F)cc(C(=O)NC2CC2)cc1-c1ccc(C(=O)NCC(C)(C)C)cn1 [Losmapimod]  0.2
16. C[C@]1(O)C[C@@H](c2nc(-c3ccc4ccc(-c5ccccc5)nc4c3)c3c(N)nccn32)C1 [Linsitinib]  0.3
17. CC(=O)O[C@]1(C(C)=O)CC[C@H]2[C@@H]3C=C(C)C4=CC(=O)CC[C@]4(C)[C@H]3CC[C@@]21C [Megestrol acetate]  0.4
18. Cn1cc(-c2cnn3c(N)c(Br)c([C@@H]4CCCNC4)nc23)cn1 [MK-8776]  1
19. CC[C@H](C)C(=O)O[C@H]1C[C@@H](C)C=C2C=C[C@H](C)[C@H](CC[C@@H]3C[C@@H](O)CC(=O)O3)[C@H]21 [Lovastatin]  1.7
20. CCC(C)n1ncn(-c2ccc(N3CCN(c4ccc(OCC5COC(Cn6cncn6)(c6ccc(Cl)cc6Cl)O5)cc4)CC3)cc2)c1=O (stereo not drawn) [Itraconazole]  1.9
21. CNC(=O)c1cccc2cc(Oc3ccnc4cc(OCC5(N)CC5)c(OC)cc34)ccc12 [Lucitanib]  2.3
22. Cc1ccc(NC(=O)c2ccc(CN3CCN(C)CC3)cc2)cc1Nc1nc(-c2cccnc2)cs1 [Masitinib]  4.1
23. O=C(CCNC(=O)c1ccc(OC(F)(F)F)cc1)N[C@@H]1CCCc2ccccc21 [ML390]  4.9
24. C/C(=C\c1csc(C)n1)[C@@H]1C[C@@H]2O[C@]2(C)CCC[C@H](C)[C@H](O)[C@@H](C)C(=O)C(C)(C)[C@@H](O)CC(=O)N1 [Ixabepilone]  5.2
25. O=C(c1cccc(Cl)c1F)N1CCN(Cc2cccc(Nc3nccs3)n2)CC1 [MK-8745]  8
26. CC(C)NC(=O)COc1cccc(-c2nc(Nc3ccc4[nH]ncc4c3)c3ccccc3n2)c1 [KD025]  8.2
27. CC(C)C[C@H](NC(=O)CNC(=O)c1cc(Cl)ccc1Cl)B(O)O [Ixazomib]  9
28. NC(=O)N1CCC(CC(=O)N2CCC([C@H]3c4ncc(Br)cc4CCc4cc(Cl)cc(Br)c43)CC2)CC1 [Lonafarnib]  9.4
29. O=C(Nc1cccc(NC(=O)c2cccc(O)c2O)c1)c1cccc(O)c1O [MST-312]  13.9
30. CCNCCS(=O)(=O)NC[C@@]1(c2ccccc2)SC(NC(=O)C(C)(C)C)=NN1C(=O)C(C)(C)C [Litronesib]  18.4
31. CCNC(=O)c1noc(-c2cc(C(C)C)c(O)cc2O)c1-c1ccc(CN2CCOCC2)cc1 [Luminespib]  18.8

What follows are compounds tested on Ovsaho in the same assay as above. Conditions: exposure time: 72 h; concentration range: 5 concentrations over 10,000-fold range.
Procedure, shortened: as §1

In order of falling drug sensitivity score:
1. NC(=O)N1CCC(CC(=O)N2CCC([C@H]3c4ncc(Br)cc4CCc4cc(Cl)cc(Br)c43)CC2)CC1 [Lonafarnib]  9.8
2. O=C(Nc1cccc(NC(=O)c2cccc(O)c2O)c1)c1cccc(O)c1O [MST-312]  9.7
3. CCNC(=O)c1noc(-c2cc(C(C)C)c(O)cc2O)c1-c1ccc(CN2CCOCC2)cc1 [Luminespib]  8.7
4. CCNCCS(=O)(=O)NC[C@@]1(c2ccccc2)SC(NC(=O)C(C)(C)C)=NN1C(=O)C(C)(C)C [Litronesib]  7.8
5. CC(C)C[C@H](NC(=O)CNC(=O)c1cc(Cl)ccc1Cl)B(O)O [Ixazomib]  7
6. O=C(CCNC(=O)c1ccc(OC(F)(F)F)cc1)N[C@@H]1CCCc2ccccc21 [ML390]  4.1
7. NC1(c2ccc(-c3nc4ccn5c(=O)[nH]nc5c4cc3-c3ccccc3)cc2)CCC1 [MK-2206]  2.6
8. Nc1nc(OCc2cc(Br)cs2)c2[nH]cnc2n1 [Lomeguatrib]  2.5
9. C/C(=C\c1csc(C)n1)[C@@H]1C[C@@H]2O[C@]2(C)CCC[C@H](C)[C@H](O)[C@@H](C)C(=O)C(C)(C)[C@@H](O)CC(=O)N1 [Ixabepilone]  2
10. CC(C)NC(=O)COc1cccc(-c2nc(Nc3ccc4[nH]ncc4c3)c3ccccc3n2)c1 [KD025]  1.9
11. CNC(=O)c1cccc2cc(Oc3ccnc4cc(OCC5(N)CC5)c(OC)cc34)ccc12 [Lucitanib]  0.8
12. Cc1ccc(NC(=O)c2ccc(CN3CCN(C)CC3)cc2)cc1Nc1nc(-c2cccnc2)cs1 [Masitinib]  0.8
13. Cc1c(F)cc(C(=O)NC2CC2)cc1-c1ccc(C(=O)NCC(C)(C)C)cn1 [Losmapimod]  0.7
14. CC[C@H](C)C(=O)O[C@H]1C[C@@H](C)C=C2C=C[C@H](C)[C@H](CC[C@@H]3C[C@@H](O)CC(=O)O3)[C@H]21 [Lovastatin]  0.7
15. CCC(C)n1ncn(-c2ccc(N3CCN(c4ccc(OCC5COC(Cn6cncn6)(c6ccc(Cl)cc6Cl)O5)cc4)CC3)cc2)c1=O (stereo not drawn) [Itraconazole]  0.2
16. O=C(c1cccc(Cl)c1F)N1CCN(Cc2cccc(Nc3nccs3)n2)CC1 [MK-8745]  0.2
17. COc1cc2nccc(Oc3ccc(NC(=O)NC4CC4)c(Cl)c3)c2cc1C(N)=O [Lenvatinib]  0.1
18. N#Cc1ccnc(N2C(=O)CC[C@H]2C(=O)N(c2cncc(F)c2)[C@H](C(=O)NC2CC(F)(F)C2)c2ccccc2Cl)c1 [Ivosidenib]  0
19. Nc1cc(COc2c(Cl)cc(C[C@H](N)C(=O)O)cc2Cl)c2oc(-c3ccccc3)nc2c1 [JPH203]  0
20. CS(=O)(=O)CCNCc1ccc(-c2ccc3ncnc(Nc4ccc(OCc5cccc(F)c5)c(Cl)c4)c3c2)o1 [Lapatinib]  0
21. O=C(Nc1cnn2ccc(N3CCC[C@@H]3c3cc(F)ccc3F)nc12)N1CC[C@H](O)C1 [Larotrectinib]  0
22. Oc1ccc2c(c1)CC[C@H](c1ccccc1)[C@@H]2c1ccc(OCCN2CCCC2)cc1 [Lasofoxifene]  0
23. Nc1cccc2c1CN(C1CCC(=O)NC1=O)C2=O (stereo not drawn) [Lenalidomide]  0
24. N#Cc1ccc(C(c2ccc(C#N)cc2)n2cncn2)cc1 [Letrozole]  0
25. Cc1ccc(F)c(NC(=O)Nc2ccc(-c3cccc4[nH]nc(N)c34)cc2)c1 [Linifanib]  0
26. C[C@]1(O)C[C@@H](c2nc(-c3ccc4ccc(-c5ccccc5)nc4c3)c3c(N)nccn32)C1 [Linsitinib]  0
27. O=C(O)CC[C@H]1CC[C@@](c2cc(F)ccc2F)(S(=O)(=O)c2ccc(Cl)cc2)CC1 [MK-0752]  0
28. Cn1cc(-c2cnn3c(N)c(Br)c([C@@H]4CCCNC4)nc23)cn1 [MK-8776]  0
29. Cc1cnc(-c2ccccc2C(C)C)nc1NCc1ccc(-n2ccnn2)cc1 [ML323]  0
30. CNC(=O)[C@@H](NC(=O)[C@H](CC(C)C)[C@H](O)C(=O)NO)C(C)(C)C [Marimastat]  0
31. CC(=O)O[C@]1(C(C)=O)CC[C@H]2[C@@H]3C=C(C)C4=CC(=O)CC[C@]4(C)[C@H]3CC[C@@]21C [Megestrol acetate]  0
